Patent US8399465B2, “Compounds with two fused bicyclic heteroaryl moieties as modulators of leukotriene A4 hydrolase” (Janssen Pharmaceutica NV, priority 2009, dated 2013)
Where a name gives a salt, the structure may show the parent alone. Read-outs that look alike come from different tables or passages of the source.

Columns and labels:
[1] = target: T1, recombinant human LTA4 hydrolase (rhLTA4H) (Homo sapiens, UniProt P09960); assay: Recombinant human LTA4 hydrolase assay for LTA4 hydrolase inhibitor activity; type: biochemical
T1 construct: made in house; host or cells: Spodoptera frugiperda (Sf-9) cells, baculovirus (pFastBac1)
T1 sequence (P09960 1-611): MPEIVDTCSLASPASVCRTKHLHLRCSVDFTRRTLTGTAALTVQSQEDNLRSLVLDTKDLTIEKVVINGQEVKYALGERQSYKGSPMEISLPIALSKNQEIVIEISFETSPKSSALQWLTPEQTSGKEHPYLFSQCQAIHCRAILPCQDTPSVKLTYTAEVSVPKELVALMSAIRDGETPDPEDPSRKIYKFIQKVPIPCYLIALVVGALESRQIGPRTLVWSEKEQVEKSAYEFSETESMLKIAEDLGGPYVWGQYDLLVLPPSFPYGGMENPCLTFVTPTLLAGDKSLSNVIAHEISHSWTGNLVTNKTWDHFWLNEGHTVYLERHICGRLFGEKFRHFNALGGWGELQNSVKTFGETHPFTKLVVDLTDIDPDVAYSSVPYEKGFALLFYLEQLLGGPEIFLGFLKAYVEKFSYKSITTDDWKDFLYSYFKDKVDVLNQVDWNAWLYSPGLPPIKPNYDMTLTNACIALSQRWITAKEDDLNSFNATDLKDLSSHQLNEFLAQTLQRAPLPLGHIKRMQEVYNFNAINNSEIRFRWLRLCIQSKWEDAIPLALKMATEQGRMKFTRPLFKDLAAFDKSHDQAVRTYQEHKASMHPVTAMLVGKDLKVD
Outline: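 LTB4 formation, measured by enzyme immunoassay, was the read-out. The enzyme, recombinant human LTA4H expressed in Sf-9 insect cells (10 ng per reaction), was exposed to compound for 10 min at room temperature before hydrolysed-ester LTA4 substrate was added for 30 min. Enzyme-free negatives were included.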

[2] = test system: LTB4 production in murine blood (LTA4H); assay: LTB4 production by calcium ionophore-stimulated murine blood for LTA4H inhibitor activity; type: cell-based, CD-1 mice; settings: Mus musculus; murine blood diluted 1 in 15, A23187 stimulated; single determination or average; mark after value = form tested: ′ free base, ″ hydrochloride, ^ formate; read-out: IC50
Outline: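 LTB4 was measured by ELISA in supernatants after calcium ionophore A23187 stimulation (final 7 μg/mL, 30 min, 37° C) of CD-1 mouse blood collected on heparin. Compound was preincubated with the blood for 15 min beforehand. Values come from one determination or average several.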

[3] = test system: arachidonic acid-induced neutrophil influx in murine ear tissue; assay: Murine arachidonic acid-induced inflammation model: neutrophil influx (myeloperoxidase) in ear; type: in vivo, Balb/c mice; settings: Mus musculus, read-out: % Inh. MPO
[4] = test system: ex vivo calcium ionophore-stimulated LTB4 production in whole blood; assay: Murine arachidonic acid-induced inflammation model: ex vivo stimulated LTB4 production in blood; parameters: species or system Balb/c mice; settings: Mus musculus; 30 mg/kg oral gavage; blood diluted 1:1, A23187 stimulated ex vivo; percent inhibition of LTB4 production; read-out: % Inh. LTB4
[5] = rhLTA4H, LTB4 by immunoassay, single determination or average of two or more, mark after value = form tested: ′ free base, ″ hydrochloride, ^ formate, read-out: IC50
[6] = 30 mg/kg oral gavage, 60 min before topical arachidonic acid, ear biopsy after 3 h, percent inhibition of neutrophil influx

SMILES | IC50 [1, 5] | IC50 [2] | inhibition at 30 mg/kg [3, 6] | inhibition at 30 mg/kg [4] | inhibition at 30 mg/kg ([3]; Neutrophil) | IC50 [1]
COCCN(C)Cc1coc2cc(Oc3nc4ncccc4s3)ccc12 [Example 184, (2-Methoxy-ethyl)-methyl-[6-(thiazolo[4,5-b]pyridin-2-yloxy)-benzofuran-3-ylmethyl]-amine] | 8 nM | 49 nM | 53% | 82% |  | 
c1cnc2nc(Oc3ccc4c(CN5CCCC5)coc4c3)sc2c1 [Example 185, 2-(3-Pyrrolidin-1-ylmethyl-benzofuran-6-yloxy)-thiazolo[4,5-b]pyridine] | 4 nM | 12 nM | 64% | 75% |  | 
COC[C@@H]1CCCN1Cc1coc2cc(Oc3nc4ncccc4s3)ccc12 [Example 186, (2S)-2-[3-(2-Methoxymethyl-pyrrolidin-1-ylmethyl)-benzofuran-6-yloxy]-thiazolo[4,5-b]pyridine] | 1 nM | 6 nM | 79% | 86% |  | 
CC(=O)N[C@H]1C[C@@H]2C[C@H]1CN2Cc1coc2cc(Oc3nc4ncccc4s3)ccc12 [Example 187, (1S,4S,5S)—N-{2-[6-(Thiazolo[4,5-b]pyridin-2-yloxy)-benzofuran-3-ylmethyl]-2-aza-bicyclo[2.2.1]hept-5-yl}-acetamide] | 1 nM | 21 nM | 88% | 83% |  | 
CC(=O)N[C@H]1C[C@@H]2C[C@H]1CN2Cc1cc2cc(Oc3nc4ncccc4s3)ccc2o1 [Example 188, (1S,4S,5S)—N-{2-[5-(Thiazolo[4,5-b]pyridin-2-yloxy)-benzofuran-2-ylmethyl]-2-aza-bicyclo[2.2.1]hept-5-yl}-acetamide] | 26 nM | 63 nM | 78% | 73% |  | 
CC(=O)N[C@H]1C[C@@H]2C[C@H]1CN2Cc1cc2ccc(Oc3nc4ncccc4s3)cc2o1 [Example 189, (1S,4S,5S)—N-{2-[6-(Thiazolo[4,5-b]pyridin-2-yloxy)-benzofuran-2-ylmethyl]-2-aza-bicyclo[2.2.1]hept-5-yl}-acetamide] | 3 nM | 70 nM | 84% | 76% |  | 
CC(=O)N1CCN(Cc2coc3cc(Oc4nc5ncccc5s4)ccc23)CC1 [Example 196, 1-{4-[6-(Thiazolo[4,5-b]pyridin-2-yloxy)-benzofuran-3-ylmethyl]-piperazin-1-yl}-ethanone formate] | 11 nM | 38 nM |  | 91% | 93% | 
CC(=O)NC1CCN(Cc2coc3cc(Oc4nc5ncccc5s4)ccc23)CC1 [Example 197, N-{1-[6-(Thiazolo[4,5-b]pyridin-2-yloxy)-benzofuran-3-ylmethyl]-piperidin-4-yl}-acetamide formate] | 4 nM | 15 nM |  | 91% | 92% | 
CCN(CC)Cc1cc2ccc(Oc3nc4ncccc4s3)cc2o1 [Example 198, Diethyl-[6-(thiazolo[4,5-b]pyridin-2-yloxy)-benzofuran-2-ylmethyl]-amine formate] | 11 nM | 110 nM |  | 80% | 74% | 
CC(=O)N[C@@H]1C[C@H]2CC[C@@H](C1)N2Cc1coc2cc(Oc3nc4ncccc4s3)ccc12 [Example 208, meso-exo-N-{8-[6-(Thiazolo[4,5-b]pyridin-2-yloxy)-benzofuran-3-ylmethyl]-8-aza-bicyclo[3.2.1]oct-3-yl}-acetamide] |  | 24 nM | 92% | 93% |  | 1 nM
NC(=O)N1C[C@@H]2C[C@H]1CN2Cc1coc2cc(Oc3nc4ncccc4s3)ccc12 [Example 209, (1S,4S)-5-[6-(Thiazolo[4,5-b]pyridin-2-yloxy)-benzofuran-3-ylmethyl]-2,5-diaza-bicyclo[2.2.1]heptane-2-carboxylic acid amide formate] | 53 nM | 54 nM |  | 68% | 82% | 
CC(=O)N1CC2CN(Cc3coc4cc(Oc5nc6ncccc6s5)ccc34)CC2C1 (stereo not drawn) [Example 211, meso-1-{5-[6-(Thiazolo[4,5-b]pyridin-2-yloxy)-benzofuran-3-ylmethyl]-hexahydro-pyrrolo[3,4-c]pyrrol-2-yl}-ethanone] | 11 nM | 13 nM | 86% | 92% |  | 
NC(=O)C1CCN(Cc2coc3cc(Oc4nc5ncccc5s4)ccc23)CC1 [Example 213, 1-[6-(Thiazolo[4,5-b]pyridin-2-yloxy)-benzofuran-3-ylmethyl]-piperidine-4-carboxylic acid amide] | 5 nM | 25 nM | 92% | 80% |  | 
CNC(=O)C1CCN(Cc2coc3cc(Oc4nc5ncccc5s4)ccc23)CC1 [Example 214, 1-[6-(Thiazolo[4,5-b]pyridin-2-yloxy)-benzofuran-3-ylmethyl]-piperidine-4-carboxylic acid methylamide] | 2 nM | 19 nM | 88% | 90% |  | 
O=C1CCCN1C1CCN(Cc2coc3cc(Oc4nc5ncccc5s4)ccc23)CC1 [Example 215, 1-{1-[6-(Thiazolo[4,5-b]pyridin-2-yloxy)-benzofuran-3-ylmethyl]-piperidin-4-yl}-pyrrolidin-2-one] | 3 nM | 21 nM | 78% | 88% |  | 
CC(C)(O)C1CCN(Cc2coc3cc(Oc4nc5ncccc5s4)ccc23)CC1 [Example 218, 2-{1-[6-(Thiazolo[4,5-b]pyridin-2-yloxy)-benzofuran-3-ylmethyl]-piperidin-4-yl}-propan-2-ol] | 5 nM | 53 nM | 98% | 83% |  | 
CC(C)(C)C(=O)NC1CCN(Cc2cc3ccc(Oc4nc5ncccc5s4)cc3o2)C1 (stereo not shown) [Example 236, 2,2-Dimethyl-N-{1-[6-(thiazolo[4,5-b]pyridin-2-yloxy)-benzofuran-2-ylmethyl]-pyrrolidin-3-yl}-propionamide formate] | 60 nM | 190 nM |  | 39% | 34% | 
CC(=O)N1C[C@@H]2CC[C@H]1CN2Cc1coc2cc(Oc3nc4ncccc4s3)ccc12 [Example 237, (1S,4S)1-{5-[6-(Thiazolo[4,5-b]pyridin-2-yloxy)-benzofuran-3-ylmethyl]-2,5-diaza-bicyclo[2.2.2]oct-2-yl}-ethanone] | 2 nM | 22 nM | 81% | 90% |  | 
CC(=O)N1CCC(N(Cc2coc3cc(Oc4nc5ncccc5s4)ccc23)C2CC2)CC1 [Example 238, 1-(4-{Cyclopropyl-[6-(thiazolo[4,5-b]pyridin-2-yloxy)-benzofuran-3-ylmethyl]-amino}-piperidin-1-yl)-ethanone] | 5 nM | 44 nM | 77% | 93% |  | 
NC(=O)N1CCN(Cc2coc3cc(Oc4nc5ncccc5s4)ccc23)CC1 [Example 239, 4-[6-(Thiazolo[4,5-b]pyridin-2-yloxy)-benzofuran-3-ylmethyl]-piperazine-1-carboxylic acid amide] | 6 nM | 18 nM | 90% | 71% |  | 
NC(=O)NC1CCN(Cc2coc3cc(Oc4nc5ncccc5s4)ccc23)CC1 [Example 240, {1-[6-(Thiazolo[4,5-b]pyridin-2-yloxy)-benzofuran-3-ylmethyl]-piperidin-4-yl}-urea] | 5 nM | 70 nM | 0% | 50% |  | 
NC(=O)N1C[C@@H]2CC[C@H]1CN2Cc1coc2cc(Oc3nc4ncccc4s3)ccc12 [Example 241, (1S,4S)-5-[6-(Thiazolo[4,5-b]pyridin-2-yloxy)-benzofuran-3-ylmethyl]-2,5-diaza-bicyclo[2.2.2]octane-2-carboxylic acid amide formate] | 4 nM | 69 nM |  | 77% | 85% | 
